# Legend:
# [1] = system: retina ganglion cells (RGCs); assay: Optic nerve crush (ONC), retina ganglion cell survival; format: in vivo, ground squirrel; conditions: awake animals; injected into the eye before and after the ONC surgery
# Description: Previous work has shown that succinate regulates macrophages, causing them to switch between pro-inflammatory and anti-inflammatory states (Mills, et al., (2016) Succinate Dehydrogenase Supports Metabolic Repurposing of Mitochondria to Drive Inflammatory Macrophages. Cell, […]; 457-470.e13). Thus, the inventors hypothesized that immune regulation due to reduced succinate levels may occur in the retina during hibernation, and that this may subsequently affect cellular response to neural injury. To test this hypothesis, optic nerve crush (ONC), a classic axonal injury experiment, was performed in awake and in hibernating ground squirrels. Retina ganglion cells (RGCs) appeared to survive ONC during hibernation (FIG. 4). Intriguingly, a key cellular response difference between awake and hibernating animals to ONC is microglial aggregation and activation, in line with the hypothesis that low succinate level during hibernation may prevent microglia from activation in response to injury. To further test this hypothesis, a second experiment was done in which dimethyl malonate (DMM), an inhibitor of SDH, was injected into the eye before and after the ONC surgery in awake animals to create a lower succinate condition, thereby mimicking hibernation. […] To further examine the role of microglia, microglia were pharmacologically eliminated before ONC surgery in awake animals. […]
# mitochondrial ROS = assay: In situ mitochondrial ROS production in retina after partial ONC (MitoNeoD dye); format: in vivo, thirteen lined ground squirrel (TLGS); conditions: active TLGSs with ONC; intraocular injection
# Description: (§1) It is known in the art that a key event in the LPS-induced macrophage activation is the over-production of mitochondrial ROS driven by the hyperpolarization of mitochondrial membrane potential and SDH-accelerated succinate oxidation (Mills et al., 2016). However, for the retina, it is challenging to perform live ROS measurement, because enucleation causes an acute ROS surge due to severing of the optic nerve. Thus, a method was developed to visualize in situ mitochondrial ROS production in thirteen lined ground squirrel (TLGS) retina with optic nerve crush (ONC), that used a mitochondrial ROS dye—MitoNeoD (Shchepinova et al., 2017). […] In active TLGS retina with partial ONC injuries, it was observed that above the optic nerve fiber/RGC layers there were cells decorated with bright MitoNeoOH (oxidized and fluorescent form of MitoNeoD) signals (arrows in FIG. 6D) overlapping with a mitochondrial protein marker (TOM20) (FIGS. 7A, 7B, and 7C). These cells were then confirmed to be mostly microglial cells (FIGS. 7D, 7E, and 7F). It was then confirmed that intraocular injection of DMM indeed lowered SDH activity in the retina of ONC-injured active TLGSs (FIG. 8B).
# [2] = system: succinate dehydrogenase (SDH); assay: SDH activity in the retina of ONC-injured active TLGSs; format: in vivo, thirteen lined ground squirrel (TLGS); conditions: intraocular injection
# Description: as §1
# [3] = system: microglia cell line (BV2); assay: LPS-induced pro-inflammatory cytokine production in a microglia cell line; format: cell-based, mouse
# Description: The direct effect of DMM on microglia was examined by conducting an in vitro experiment using a microglia cell line (BV2).
# as §1
# [4] = cultured microglial cells, 100 ng/ml LPS + 1 mM or 10 mM DMM
# [5] = mouse BV-2, concentration not given
compound,measurement,setting,value
"COC(=O)CC(=O)OC [DMM, dimethyl malonate]",RGC survival after ONC,[1],significantly improved
same,mitochondrial ROS production,mitochondrial ROS,significantly alleviated
same,SDH activity in the retina,[2],lowered
same,response of microglia to LPS,"[3]; BV2, DMM 1 or 10 mM",significantly attenuated
same,production of IL1A,[3]; [4],significantly reduced
same,production of MCP-1,[3]; [4],significantly reduced
same,LPS-induced production of IL-1α,[3]; [5],effectively reduced
same,LPS-induced production of IL-6,[3]; [5],effectively reduced
same,LPS-induced production of MCP-1,[3]; [5],effectively reduced

# Source: patent publication US12011426B2, “Methods of metabolic regulation of mitochondria for treating neural injury and neurological disorders” (The USA, as represented by the Secretary, Dept. of Health …, priority 2018, dated 2024)
